US7829593B2, “Glutamine-containing compositions and a method for increasing blood flow using same” (Ajinomoto Co., Inc., priority 2006, dated 2010)
Read-outs that look alike come from different tables or passages of the source.

Tests used:
[1] = system: blood pressure and vascular resistance in humans; conditions: 78 kg average body weight, cited from earlier work
[2] = system: blood flow in the capillary vessels of various organs of rats; test: Changes in blood flow in various organs after oral administration of glutamine to rats (microsphere method); format: in vivo, rat; conditions: for Change in blood flow after administration of amino acid, on the basis of 100% blood flow before administration: male SD rats, 50 mg/kg glutamine into the stomach
Procedure: (a) Glutamine was given to rats and then the changes in blood flow in the capillary vessels of their various organs were determined. (b) Male SD rats having a body weight of about 400 g were subjected to the experiment. (c) The rats were anesthetized by pentobarbital, and catheters were placed in the left ventricle and the right […] of each rat. […] Through the catheter located from the carotid artery to the left ventricle, yellow and red microspheres were each injected before and after the administration of the amino acid solution. […] For the control group, distilled water was administered. (b) Operation: Catheters were inserted into the carotid and femoral arteries of the rats under anesthesia, the microspheres were injected via these catheters, and blood samples were taken. […] After a sufficient interval after the second injection of the microspheres, the rats were euthanized. The muscles, alimentary canals, liver, kidneys, spleen, heart, brain, fat tissue, and abdominal skin were extracted. The microspheres which had collected in each organ were removed and the change in the ratio of the blood flow was calculated from the amounts of microspheres present in each organ.

Row | Structure (SMILES) | Effect on blood pressure and vascular resistance ([1]; 6 g arginine intravenously) | Effect on blood pressure and vascular resistance ([1]; 30 g arginine intravenously) | Change in blood flow after administration of amino acid, on the basis of 100% blood flow before administration ([2]; Abdominal skin) [%] | Change in blood flow after administration of amino acid, on the basis of 100% blood flow before administration ([2]; Brain) [%] | Change in blood flow after administration of amino acid, on the basis of 100% blood flow before administration ([2]; Dorsal skin) [%] | Change in blood flow after administration of amino acid, on the basis of 100% blood flow before administration ([2]; Duodenum) [%] | Change in blood flow after administration of amino acid, on the basis of 100% blood flow before administration ([2]; Fat tissues) [%] | Change in blood flow after administration of amino acid, on the basis of 100% blood flow before administration ([2]; Gastrocnemius) [%] | Change in blood flow after administration of amino acid, on the basis of 100% blood flow before administration ([2]; Heart) [%] | Change in blood flow after administration of amino acid, on the basis of 100% blood flow before administration ([2]; Kidney) [%] | Change in blood flow after administration of amino acid, on the basis of 100% blood flow before administration ([2]; Liver) [%] | Change in blood flow after administration of amino acid, on the basis of 100% blood flow before administration ([2]; Soleus) [%] | Change in blood flow after administration of amino acid, on the basis of 100% blood flow before administration ([2]; Spleen) [%] | Blood flow in the capillary vessels (result in words) ([2]; abdominal skin, spleen, liver, heart and brain, rats, 50 mg/kg glutamine)
1 | N=C(N)NCCC[C@H](N)C(=O)O [arginine] | did not have either effect | lowered blood pressure and vascular resistance |  |  |  |  |  |  |  |  |  |  |  | 
2 | NC(=O)CC[C@H](N)C(=O)O [Glutamine, glutamine] |  |  | 146 | 163 | 154 | 136 | 137 | 105 | 259 | 113 | 226 | 146 | 146 | significant increase in blood flow
